In ChEMBL document CHEMBL1143207, “New 7,8-benzoflavanones as potent aromatase inhibitors: synthesis and biological evaluation” (Bioorg Med Chem, 2008):

Biological target: T1, Aromatase (Homo sapiens, UniProt P11511)
T1 sequence (P11511 whole entry): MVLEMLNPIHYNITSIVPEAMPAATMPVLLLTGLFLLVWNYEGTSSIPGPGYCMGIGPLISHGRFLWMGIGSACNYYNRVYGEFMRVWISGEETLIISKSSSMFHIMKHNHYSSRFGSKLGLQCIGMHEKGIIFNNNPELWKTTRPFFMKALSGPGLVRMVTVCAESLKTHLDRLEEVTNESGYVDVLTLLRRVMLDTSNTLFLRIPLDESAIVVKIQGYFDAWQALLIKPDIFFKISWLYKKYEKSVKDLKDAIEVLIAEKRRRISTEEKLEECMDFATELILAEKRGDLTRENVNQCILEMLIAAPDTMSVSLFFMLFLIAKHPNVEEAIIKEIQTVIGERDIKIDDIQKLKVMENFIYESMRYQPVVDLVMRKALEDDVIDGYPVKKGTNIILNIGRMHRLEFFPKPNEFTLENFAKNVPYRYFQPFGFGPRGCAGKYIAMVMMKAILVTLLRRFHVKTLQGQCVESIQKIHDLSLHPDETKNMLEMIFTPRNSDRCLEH
Type: microsomes, Placenta, Microsomes
Description: Inhibition of human aromatase in placental microsomes

Compound | IC50
N#Cc1cccc(C2CC(=O)c3ccc4ccccc4c3O2)c1 (configuration not stated) | 1.37 µM
O=C1C[C@@H](c2ccc(O)cc2)Oc2cc(O)ccc21 [LIQUIRTIGENIN] | 2.1 µM
O=C1CC(c2ccc(O)cc2)Oc2c1ccc1ccccc21 (configuration not stated) | 0.63 µM
N#Cc1ccc(C2CC(=O)c3ccc4ccccc4c3O2)cc1 (configuration not stated) | 1.54 µM

More lines, in order of falling IC50, values ahead:

IC50 | Compound
4.3 µM | O=C1CC(c2ccccc2)Oc2c1ccc1ccccc21 (configuration not stated)
3.4 µM | O=C1CC(c2cccc(O)c2)Oc2cc(O)ccc21 (configuration not stated)
0.61 µM | O=C1CC(c2cccc(O)c2)Oc2c1ccc1ccccc21 (configuration not stated)
